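Method: 48-hour compound exposure of cells in 96-well plates, five concentrations, linear interpolation of endpoints. At the TGI there is no net growth.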
Tests used:
Assay in all cases: NCI anticancer screen, dose series, 48 h
MDA-MB-435 = system: MDA-MB-435
HT29 colon = system: HT29 colon
786-0 renal = system: 786-0 renal
A549 NSCLC = system: A549 NSCLC
OVCAR-3 ovarian = system: OVCAR-3 ovarian
MDA-N = system: MDA-N
U251 CNS = system: U251 CNS
OVCAR-8 ovarian = system: OVCAR-8 ovarian
UO-31 renal = system: UO-31 renal
IGROV1 ovarian = system: IGROV1 ovarian
RXF 393 renal = system: RXF 393 renal
SF-295 CNS = system: SF-295 CNS
HL-60(TB) leukemia = system: HL-60(TB) leukemia
EKVX NSCLC = system: EKVX NSCLC
SK-MEL-2 melanoma = system: SK-MEL-2 melanoma
MCF7 breast = system: MCF7 breast
CAKI-1 renal = system: CAKI-1 renal

Structure (SMILES)	TGI (MDA-MB-435)	TGI (HT29 colon)	TGI (786-0 renal)	TGI (A549 NSCLC)	TGI (OVCAR-3 ovarian)	TGI (MDA-N)	TGI (U251 CNS)	TGI (OVCAR-8 ovarian)	TGI (UO-31 renal)	TGI (IGROV1 ovarian)	TGI (RXF 393 renal)	TGI (SF-295 CNS)	TGI (HL-60(TB) leukemia)	TGI (EKVX NSCLC)	TGI (SK-MEL-2 melanoma)	TGI (MCF7 breast)	TGI (CAKI-1 renal)
Cc1cc2c(cc1-c1cc3c(cc1C)C(C(C)C)=C(O)C(=O)/C3=C\Nc1c3ccccc3nc3ccccc13)/C(=C/Nc1c3ccccc3nc3ccccc13)C(=O)C(O)=C2C(C)C	17.1 µM	5.1 µM	14.8 µM	13.1 µM	14.5 µM	15.8 µM	13.7 µM	12.8 µM	15.4 µM	11.1 µM	20.1 µM	12.9 µM	11.2 µM	5.67 µM	19.2 µM	11 µM	–
COc1cc(O)c2c(=O)cc(-c3ccc(O)cc3O)oc2c1CC=C(C)C	> 100 µM	16.3 µM	> 100 µM	29.7 µM	–	61.5 µM	38.2 µM	35.3 µM	33.5 µM	39.6 µM	19.6 µM	30.2 µM	34.4 µM	73.6 µM	39.1 µM	75.7 µM	32.5 µM
O=C(CC(=O)N(C(=O)/C=C\c1ccccc1)c1ccc(Cl)cc1)N1N=C(c2ccccc2)C(N=Nc2cccc([N+](=O)[O-])c2)C1=O (centres undefined)	> 100 µM	15.2 µM	19.6 µM	> 100 µM	6.25 µM	> 100 µM	33.7 µM	> 100 µM	> 100 µM	48.6 µM	36.9 µM	25.2 µM	11.1 µM	> 100 µM	–	28.4 µM	> 100 µM
COC(=O)C1(C(=O)OC)Cc2ccc(OC)cc2C2=C1C(=O)c1ccccc1C2=O	3.52 µM	59.5 µM	> 47.9 µM	30.9 µM	3.69 µM	3.36 µM	14.8 µM	9.27 µM	18.6 µM	8.53 µM	–	8.44 µM	> 21.1 µM	19.1 µM	15.7 µM	7.3 µM	7.72 µM
O=C(Nc1ccc(Cl)cc1)NS(=O)(=O)c1coc2cc(F)ccc2c1=O	> 100 µM	> 100 µM	> 100 µM	> 100 µM	> 100 µM	> 100 µM	> 100 µM	> 100 µM	> 100 µM	> 100 µM	> 100 µM	> 100 µM	–	> 100 µM	> 100 µM	> 100 µM	> 100 µM
Cc1ccc2c(c1)[nH]c(=S)n2/C=C1\C(=O)Oc2ccccc2C1=O	> 100 µM	> 100 µM	> 100 µM	> 100 µM	> 100 µM	> 100 µM	> 100 µM	> 100 µM	> 100 µM	> 100 µM	> 100 µM	> 100 µM	> 100 µM	–	> 100 µM	> 100 µM	> 100 µM
CCOC(=O)/C(C#N)=C\c1ccc(N(CCC(=O)O)CCC(=O)O)c(I)c1	> 10 µM	> 10 µM	> 10 µM	> 10 µM	–	> 10 µM	–	> 10 µM	> 10 µM	> 10 µM	> 10 µM	> 10 µM	> 10 µM	> 10 µM	–	> 10 µM	> 10 µM
C=CCOc1cccc(C2(O)c3ccccc3C3=NCCCN32)c1 (centres undefined)	26 µM	27.2 µM	25.2 µM	> 39.4 µM	10.4 µM	33.1 µM	32.5 µM	> 43.2 µM	29.4 µM	> 37.4 µM	–	7.83 µM	> 35.6 µM	> 35.1 µM	17.5 µM	32 µM	> 86.6 µM
CCOP(=O)(OCC)/C(C#N)=C/c1ncc[nH]1	> 100 µM	> 100 µM	> 100 µM	> 100 µM	> 100 µM	> 100 µM	> 100 µM	> 100 µM	> 100 µM	–	> 100 µM	> 100 µM	> 100 µM	> 100 µM	> 100 µM	> 100 µM	> 100 µM
O=C(NC1=NCC(CN2CCN(c3ccccc3)CC2)O1)Nc1ccccc1 (centres undefined)	> 100 µM	> 100 µM	> 100 µM	> 100 µM	–	> 100 µM	> 100 µM	–	> 100 µM	> 100 µM	> 100 µM	> 100 µM	> 100 µM	> 100 µM	> 100 µM	> 100 µM	> 100 µM
COC(=O)c1ccc(C)cc1CC1Cc2cc(C)ccc2C1=O (centres undefined)	> 100 µM	> 100 µM	> 100 µM	> 100 µM	> 100 µM	> 100 µM	> 100 µM	> 100 µM	> 100 µM	> 100 µM	–	> 100 µM	> 100 µM	> 100 µM	> 100 µM	> 100 µM	> 100 µM
C=CCNC(=O)NC(=O)CSC1=NNC2(C(=O)N1)c1ccccc1-c1ccccc12	> 10 µM	> 10 µM	> 10 µM	> 10 µM	–	> 10 µM	–	> 10 µM	> 10 µM	> 10 µM	> 10 µM	> 10 µM	> 10 µM	> 10 µM	–	> 10 µM	> 10 µM
O=C(CN1CCCCC1)Nc1ccc2sc3ccccc3c(=O)c2n1	26.2 µM	> 100 µM	37.2 µM	31.7 µM	> 100 µM	28.7 µM	35.1 µM	47.4 µM	21.6 µM	37.4 µM	–	36.6 µM	68.9 µM	89.3 µM	41 µM	77.9 µM	37.7 µM
O=C1c2cc(Cl)ccc2-n2cnnc2C2CSCN12 (centres undefined)	> 100 µM	> 100 µM	> 100 µM	> 100 µM	> 100 µM	> 100 µM	> 100 µM	> 100 µM	> 100 µM	> 100 µM	> 100 µM	> 100 µM	–	> 100 µM	> 100 µM	> 100 µM	46 µM

— PubChem BioAssay (NCI)
